From ChEMBL document CHEMBL3600288, “Development of Selective Covalent Janus Kinase 3 Inhibitors” (J Med Chem, 2015) come the findings set out here.

Holding throughout (type): ADME, organism-based
Data set [1] in a line: Cmax in Swiss albino mouse at 2 mg/kg, iv. Set-up: dose 2 mg/kg, route intravenous. The conditions noted are these: in vivo.
Data set [2] is described as follows: Cmax in Swiss albino mouse at 10 mg/kg, po. Set-up: dose 10 mg/kg, route oral. The conditions noted are these: in vivo.
Data set [3] concerns Mus musculus. The data set is described as follows: AUClast in Swiss albino mouse at 10 mg/kg, po. The following applies: in vivo. Details: dose 10 mg/kg, route oral, time 0 - last.
A short description of data set [4]: Tmax in Swiss albino mouse at 10 mg/kg, po. The following applies: in vivo.
In data set [5] the test system is Mus musculus. The data set is described as follows: AUClast in Swiss albino mouse at 2 mg/kg, iv. Set-up: dose 2 mg/kg, time 0 - last, route intravenous. The conditions noted are these: in vivo.
Data set [6] is described as follows: Volume of distribution at steady state in Swiss albino mouse at 2 mg/kg, iv. The following applies: in vivo, read-out: Vdss.
Data set [7] can be described thus: Oral bioavailability in Swiss albino mouse at 10 mg/kg. The following applies: in vivo.

Broadly, the Cmax is the peak of the concentration-time curve. Usually Tmax stands for the time at which the peak concentration occurs. The bioavailability is the share of a dose that reaches the circulation, judged against a reference dose that is usually intravenous. A high value points to much systemic uptake. On to `C=CC(=O)Nc1cccc(CNc2nc(Nc3ccc(N4CCN(C)CC4)cc3OC)ncc2Cl)c1`, for which the figures for the Cmax in data set [1] and in data set [2] were 0.159 µg/mL and 0.204 µg/mL, respectively. In addition, the results for the AUClast with Mus musculus [3] and in the data set with Mus musculus [5] were 795.29 h/ng/mL and 241.3 h/ng/mL, respectively. In addition, the Tmax in data set [4] was 30 min. In addition, in data set [6], the Vd stood at 18.4 L/kg. In data set [7], the bioavailability worked out at 66%.
